The values that follow come from patent publication US20090324718A1, “IMATINIB COMPOSITIONS” (priority 2006, published 2009).

Counter-ions that a name gives are not always drawn.

Assay type in all cases: physicochemical
Data set [1] in a line: Chemical stability on storage: HPLC Assay and Impurities and Degradation Determination (IDD). As to conditions: for Chemical: Assay: HPLC; for Chemical: main deg: HPLC IDD. As for the experimental part: The term “chemical stability” as used herein relates to the presence or absence of degradation products of the active pharmaceutical ingredient (API) as measure over time. Chemical stability is measured as the Assay of the material and/or the level of degradants. Stability is defined as having an Assay of at least about 90%, as determined by an HPLC assay method and/or having a minimum level of degradants, as determined by an HPLC Impurities and Degradation Determination (IDD) method over time. Preferably, a chemically stable composition as in the present inventor has an assay of at least 95%, more preferably at least 98%, as determined by an HPLC assay over time (storage time).
The stability of the examples described herein were tested using various analytical methods. One analytic method used is a determination using HPLC. The following HPLC method was used for the examples described below where HPLC was used as an analytic method.
(§1) The table below summarizes all test results (Assay, IDD, weight gain, and appearance). The appearance data is scored from 1 to 5 (1=very good (no change in color and texture of the sample), see an example of “Score=1” in Table 2, example 10, Day 0, 5=not good (changed both in color (became yellow) and in texture (absorbed water and reduced shine of sample)), see an example of “Score=4-5” in Table 2, example 9, time Day 5), and is supported by pictures presented in Table 2.

Data set [2] in a line: Physical stability on storage: appearance score (color and texture). More on the design: key to Appearance, scale: 1 = good 5 = bad / Appearance / Appearance t = 7 days / Appearance t = 14 days: 1=very good (no change in color and texture of the sample); 5=not good (changed both in color (became yellow) and in texture (absorbed water and reduced shine of sample)). As to conditions: for Appearance t = 7 days / Appearance t = 14 days / Appearance t = 28 days: 40° C./75% RH; for Appearance, scale: 1 = good 5 = bad: 55° C./75% RH Day 0; for Appearance: 55° C./75% RH Day 5.
Text: As used herein the term “physical stability” of a composition means the appearance of the composition is substantially unchanged and/or the hygroscopicity is low.
The term “appearance” as used herein describes the color and texture of a composition. The color of a composition according to a scored scale, as assessed by one of ordinary skill in the art in view of the following guidelines. A discoloration score of 1 indicates material without discoloration, whereas a discoloration score of 5 indicates severe discoloration (almost complete discoloration) relative to the color of the material as obtained after preparation and prior to storage. In the present invention the composition preferably has a white color immediately after processing and generally remains white if stable. Discoloration to a yellow color is typical when the composition is unstable. Similarly, a texture score of 1 indicates material having an uniform and smooth texture, whereas a texture score of 5 indicates a nonuniform and rough texture. The texture may be determined by visual inspection by one of ordinary skill in the art. For both discoloration and texture, scores 2 to 4 represent 5 “some or slight (change)” for a score of 2, “medium (change)” for a score of 3, and “substantial (change)” for a score of 4.
as §1

Data set [3] in a line: Gain of weight (moisture uptake) on storage at 40° C./75% RH. From the text: Texture is often highly correlated with hygroscopicity. Water/moisture absorption tends to reduce shine, for example. Water hygroscopicity can be determined by weight gain analyses.
Embodiments of the invention are preferably packaged with a desiccant, such as silica. The container preferably has a high moisture barrier, examples of which are known in the art. In a preferred packaged pharmaceutical composition of the present invention an amount of desiccant which will assure a weight gain due to moisture of not more than (NMT) 5%, preferably 0.5%, more preferably 0.05%, is preferred in order to maintain a good appearance and low water absorption for a maximum period of time. For example, the weight gain of the packaged material of the present invention after storage (i) at a temperature of about 55° C. and about 75% relative humidity for 5 days, and/or (ii) at a temperature of about 40° C. and about 75% relative humidity for 30 days, is less than about 15%, preferably less than about 10%, more preferably less than about 5% by weight.

Data set [4] can be described thus: Physical form of the active drug in the sample. As to conditions: 55° C./75% RH Day 0.
The nature of data set [5]: Hygroscopicity of imatinib depending on the physical structure of the active drug.

As for `Cc1ccc(NC(=O)c2ccc(CN3CCN(C)CC3)cc2)cc1Nc1nccc(-c2cccnc2)n1` [Active drug (Crystalline 2), imatinib mesylate], in data set [1] (55° C./75% RH Day 0), the “Chemical: Assay” value turned out to be 94.5 and the “Chemical: main deg” value turned out to be 0.11. Besides, in data set [1] (55° C./75% RH Day 5), the “Chemical: Assay” value was determined as 98.8 and the “Chemical: main deg” value worked out at 0.13. Moreover, in data set [2], the “Appearance t = 7 days” value turned out to be 1; the “Appearance t = 14 days” value is on record as 1-2; the “Appearance t = 28 days” value is 3; the “Appearance, scale: 1 = good 5 = bad” value turned out to be 1. The compound further registered an Appearance in data set [2] of 4. Also, in data set [3], the “Wt gain T = 7 days” value is 21.49%, the “Wt gain T = 14 days” value is 17.75% and the “Wt gain T = 28 days” value came out at 18.3%.
Consider `Cc1ccc(NC(=O)c2ccc(CN3CCN(C)CC3)cc2)cc1Nc1nccc(-c2cccnc2)n1` [Active drug (Amorphous), imatinib mesylate], for which, in data set [1] (55° C./75% RH Day 0), the “Chemical: Assay” value is listed as 88.6 and the “Chemical: main deg” value is reported as 0.46. Further, in data set [1] (55° C./75% RH Day 5), the “Chemical: Assay” value was found to be 97.8 and the “Chemical: main deg” value is recorded as 0.44. Besides, in data set [2], the “Appearance, scale: 1 = good 5 = bad” value came out at 1 and the Appearance stood at 5. Also, the Physical result in data set [4] is “amrph”. In data set [5], the “hygroscopicity compared to crystalline material” value was “much more hygroscopic”.
As for `Cc1ccc(NC(=O)c2ccc(CN3CCN(C)CC3)cc2)cc1Nc1nccc(-c2cccnc2)n1` [Active drug (Crystalline 2) Packed with silica] [imatinib mesylate], in data set [2], the “Appearance t = 7 days” value is reported as 1, the “Appearance t = 14 days” value is reported as 1 and the “Appearance t = 28 days” value came out at 2. Further, in data set [3], the “Wt gain T = 7 days” value is 12.42%, the “Wt gain T = 14 days” value came out at 7.79% and the “Wt gain T = 28 days” value came to 8.86%.
As for `Cc1ccc(NC(=O)c2ccc(CN3CCN(C)CC3)cc2)cc1Nc1nccc(-c2cccnc2)n1` [Active drug (Crystalline 1), imatinib mesylate], in data set [1] (55° C./75% RH Day 0), the “Chemical: Assay” value is 97.5 and the “Chemical: main deg” value was 0.12. In addition, in data set [1] (55° C./75% RH Day 5), the “Chemical: Assay” value came to 98.8 and the “Chemical: main deg” value was determined as 0.12. Further, in data set [2], the “Appearance, scale: 1 = good 5 = bad” value is 1 and the Appearance is listed as 1. Also, the Physical result in data set [4] is “Alpha”.
